According to US20230108125A1, “SMALL MOLECULE COMPOUNDS” (Apertor Pharmaceuticals, Inc., priority 2021, published 2023):

Tested on: Saccharomyces cerevisiae BY4742
Test: Anti-yeast activity assay (minimum inhibitory concentration)
Format: cell-based
Details: YPD media, 30° C., 16 hours, lowest concentration with no obvious culture growth, triplicate, read-out: MIC against Saccharomyces cerevisiae BY4742
Method: A single colony of Saccharomyces cerevisiae BY4742 was inoculated into 2 mL YPD media in a 5 mL falcon tube to grow overnight at 30° C. The overnight culture was inoculated into 5 mL YPD media in a glass tube at OD600=0.1, and the new culture was grown at 30° C. until OD600 reached 0.5. The culture was then diluted to OD600=0.01 and aliquoted into 96-well plates at 100 μL per well. The compound was dissolved in ethanol at 75 μM. Three-fold serial dilutions were conducted for the Compound 10 times using ethanol, respectively. 4 μL of each concentration compound solution was added and mixed with 384 μL YPD media. 100 μL of the YPD media solutions were mixed with the Saccharomyces cerevisiae cultures in 96-well plates by pipette, respectively. The plates were incubated at 30° C. for 16 hours without shaking. The lowest Compound concentrations in wells that have no obvious culture growth were defined as the minimum inhibitory concentrations (MICs). The assays were conducted in triplicate.

MIC, < 0.0556 µM:
CO[C@H]1C[C@@H]2CC[C@@H](C)[C@@](O)(O2)C(=O)C(=O)N2CCCC[C@H]2C(=O)O[C@H]([C@H](C)C[C@@H]2CC[C@@H](O)[C@H](OC)C2)CC(=O)C/C=C(\C)[C@@H](O)[C@@H](OC)C(=O)[C@H](C)C[C@H](C)/C=C/C=C/C=C/1C [Compound 10, (3S,7E,9R,10R,12R,14S,15E,17E,19E,21S,23S,26R,27R,34aS)-9,27-dihydroxy-3-((R)-1-((1S,3R,4R)-4-hydroxy-3-methoxycyclohexyl)propan-2-yl)-10,21-dimethoxy-8,12,14,20,26-pentamethyl-9,10,12,13,14,21,22,23,24,25,26,27,32,33,34,34a-hexadecahydro-3H-23,27-epoxypyrido[2,1-c][1]oxa[4]azacyclohentriacontine-1,5,11,28,29(4H,6H,31H)-pentaone]
CO[C@H]1C[C@@H]2CCC[C@@](O)(O2)C(=O)C(=O)N2CCCC[C@H]2C(=O)O[C@H]([C@H](C)C[C@@H]2CC[C@@H](O)[C@H](OC)C2)CC(=O)[C@H](C)/C=C(\C)[C@@H](O)[C@@H](OC)C(=O)[C@H](C)C[C@H](C)/C=C/C=C/C=C/1C [Compound 12, (3S,6R,7E,9R,10R,12R,14S,15E,17E,19E,21S,23S,27R,34aS)-9,27-dihydroxy-3-((R)-1-((1S,3R,4R)-4-hydroxy-3-methoxycyclohexyl)propan-2-yl)-10,21-dimethoxy-6,8,12,14,20-pentamethyl-9,10,12,13,14,21,22,23,24,25,26,27,32,33,34,34a-hexadecahydro-3H-23,27-epoxypyrido[2,1-c][1]oxa[4]azacyclohentriacontine-1,5,11,28,29(4H,6H,31H)-pentaone]
CO[C@@H]1/C(C)=C/C=C/C=C/[C@@H](C)C[C@@H](C)C(=O)[C@H](OC)[C@H](O)/C(C)=C/[C@@H](C)C(=O)C[C@@H]([C@H](C)C[C@@H]2CC[C@@H](O)[C@H](OC)C2)OC(=O)[C@@H]2CCCCN2C(=O)C(=O)[C@]2(O)O[C@@H](CC[C@H]2C)[C@@H]1C [Compound 15, (3S,6R,7E,9R,10R,12R,14S,15E,17E,19E,21S,22S,23S,26R,27R,34aS)-9,27-dihydroxy-3-((R)-1-((1S,3R,4R)-4-hydroxy-3-methoxycyclohexyl)propan-2-yl)-10,21-dimethoxy-6,8,12,14,20,22,26-heptamethyl-9,10,12,13,14,21,22,23,24,25,26,27,32,33,34,34a-hexadecahydro-3H-23,27-epoxypyrido[2,1-c][1]oxa[4]azacyclohentriacontine-1,5,11,28,29(4H,6H,31H)-pentaone]
